The source made the active and inactive calls.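 How the source made its calls: active means AC50 no more than ten times the top concentration tested, that is within one log above it; inconclusive means flat curve fit with activity between 30% and 70%, or invalid poor fit; inactive means AC50 beyond ten times the top tested dose.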

A word on the AC50: it is the concentration at which the activity in the assay is half-maximal.

In the assay the test system is S. cerevisiae Mot1-301 ts growth rescue, BacTiter-Glo ATP luminescence. The assay can be described thus: growth rescue of Mot1-301 ts yeast, confirmation, SUMOylation pathway inhibitor project, whole organism, S. cerevisiae, Mot1-301 ts mutant, luminescence, dose retest (AID 463204).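 Further: growth at restrictive 38.5 degrees C of Mot1-301 OY566 strain; actives raise luminescence by restoring growth of the ts mutant at high temperature.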
On to `Nc1ccc(NC(=O)c2ccco2)c(Cl)c1`, for which the AC50 was > 42 µM (inactive). Take `Cn1nc(C(=O)NCCc2ccc(Cl)cc2)c2c1-c1ccccc1S(=O)(=O)C2`: the AC50 was > 42 µM (inactive). The result for `O=C(Cc1ccc(Cl)cc1Cl)OCC(=O)c1ccc[nH]1` reads > 42 µM (inactive); that for `COc1ccc2c(Cl)c(C(=O)NN3CCN(C)CC3)sc2c1`, > 42 µM (inactive); that for `N#Cc1cc2c(nc1SCc1cccnc1)CCC2`, > 42 µM (inactive). Consider `C[C@H]1O[C@H]1P(=O)(O)O`, for which the AC50 is > 42 µM (inactive). Turning to `CN(C)C1(c2nnnn2-c2ccc(Cl)cc2)CCCCC1`, the AC50 was 27.9 µM. Take `Cn1c(Cn2nnc3ccccc32)nnc1SCC(=O)c1ccc(F)cc1`: the AC50 was > 42 µM (inactive). Regarding `O=C(Oc1ccc2c(c1)OCO2)c1cccs1`, the AC50 was > 42 µM (inactive). As to `CCNC(=O)C1CC(=O)N(Cc2ccc3c(c2)OCO3)C(=Nc2ccc(F)cc2)S1` (configuration not stated), the AC50 is > 42 µM (inactive). In the case of `O=C(Nc1ccc2nc(-c3ccc4nc[nH]c4c3)[nH]c2c1)c1cccs1`, the AC50 was > 42 µM (inactive). For the molecule `COCCn1c(=NC(=O)c2ccc(S(=O)(=O)N3CCOCC3)cc2)sc2cc(S(N)(=O)=O)ccc21`, the AC50 is > 42 µM (inactive). Consider `CC1CCN(CCCOc2ccc(OCc3ccccc3)cc2)CC1`, for which the AC50 was > 42 µM (inactive). Turning to `CCN(CC)c1ccc(/C=N/NC(=O)OC(C)(C)C)cc1`, the AC50 was > 42 µM (inactive). The result for `COC(=O)c1[nH]c2cc(C)ccc2c1NC(=O)CN1CCN(c2ccccc2OC)CC1` reads > 21 µM (inactive); that for `Cc1ccc(C(=O)O)cc1[N+](=O)[O-]`, > 42 µM (inactive); that for `CS(=O)(=O)c1ccc(Cl)c(C(=O)O)c1`, > 42 µM (inactive). For `CC(=O)Nc1ccc(S(=O)(=O)Nc2cccc(-c3ccc4nncn4n3)c2)cc1`, the AC50 was > 42 µM (inactive). Turning to `NC(=O)c1ccccc1NC(=O)c1ccc2c(c1)OCO2`, the AC50 was > 42 µM (inactive).

For `COc1ccc(C(=O)c2c(C)c3cc(C)ccc3n2CC(O)CN2CCOCC2)cc1` (configuration not stated), the AC50 was > 21 µM (inactive). The same measure for `CCC(C)NCCOc1ccccc1C` (configuration not stated): > 42 µM (inactive); for `O=S(=O)(c1ccc(S(=O)(=O)N2CCCC2)cc1)N1CCCCC1`: > 42 µM (inactive); for `CCOC(=O)N1CCC(NS(=O)(=O)c2ccc(C)c(Cl)c2)CC1`: > 42 µM (inactive). Regarding `Cc1cccc(N2C(=O)CSC2c2cccnc2)c1` (configuration not stated), the AC50 was > 42 µM (inactive). For `CCOC(=O)C1CCN(CC(O)COc2ccc(C(C)(C)C)cc2)CC1` (configuration not stated), the AC50 was > 42 µM (inactive). In the case of `C=CC(=O)NC1CC2CCC1(C)C2(C)C` (configuration not stated), the AC50 is > 42 µM (inactive). With `O=C(Nc1ccc(F)cc1)c1ccc(CSc2ccccc2)o1`, the AC50 was > 42 µM (inactive). On to `CCC(CC)C(=O)N1CCCC(c2nc(-c3cccs3)no2)C1` (configuration not stated), for which the AC50 is > 42 µM (inactive). The same measure for `CCCCC(O)(CCCC)C(=O)NN(C(=O)OC)c1ccc(C)cc1`: > 42 µM (inactive); for `CC(=O)c1ccc(NC(=O)CSc2nnc(-c3ccco3)o2)cc1`: > 42 µM (inactive); for `COC(=O)C1=C(C)NC(C)=C([N+](=O)[O-])C1c1ccccc1C(F)(F)F` (configuration not stated): > 42 µM (inactive). `CCOC(=O)c1nc(Nc2ccccc2CC)c2ccccc2n1`: the AC50 was > 42 µM (inactive). `Cc1nc(CCNC(=O)c2ccccc2)cs1`: the AC50 is > 42 µM (inactive).

In the case of `COc1cccc(/C=N/NC(=O)CNC(=O)c2ccco2)c1O`, the AC50 was > 42 µM (inactive). For `CCCc1nc(NCc2ccccc2)c(C#N)c2c1CCCC2`, the AC50 is > 42 µM (inactive). As for `CCn1c(SCc2nc3ccccc3[nH]2)nnc1-c1cccnc1`, the AC50 was > 42 µM (inactive). For the molecule `CC(C)C(=O)NCCSc1c[nH]c2ccccc12`, the AC50 is > 42 µM (inactive). In the case of `COC(=O)CCC(=O)OC1(C)C(=O)C=C2C=C(C3CC3)N(Cc3ccc4c(c3)OCO4)C=C2C1=O` (configuration not stated), the AC50 was > 42 µM (inactive). `CC(C)CCNC(=O)Nc1ccc2c(c1)N(C)C(=O)CS2`: the AC50 is > 42 µM (inactive). For `Clc1ccc(CNCc2cccs2)cc1Cl`, the AC50 was > 42 µM (inactive). As to `Cn1nc(C(C)(C)C)c([N+](=O)[O-])c1C(=O)Nc1ccccc1`, the AC50 is > 42 µM (inactive).

Regarding `CN(C)CCOC(c1ccc(Cl)cc1)c1ccccn1` (configuration not stated), the AC50 is > 42 µM (inactive). The same measure for `CC1=C(C(N)=O)C(c2ccccn2)n2nc(SCc3ccccc3Cl)nc2N1` (configuration not stated): > 42 µM (inactive); for `CCCN1C(=O)c2ccccc2NC1c1ccc(C)cc1` (configuration not stated): > 42 µM (inactive).

As for `CCn1c(SCC(=O)NC2CCCCC2)nnc1C(C)NC(=O)c1ccccc1F` (configuration not stated), the AC50 was > 42 µM (inactive). The result for `N#CC1=C(SCC(N)=O)NC(=O)CC1c1ccccc1Cl` (configuration not stated) reads 28.4 µM. The result for `c1ccc2cc(Cn3ccnc3)ccc2c1` reads > 42 µM (inactive); that for `Cc1sc2nc(SCC(=O)NCCOCCO)n(C)c(=O)c2c1C`, > 42 µM (inactive).

For the molecule `CCOC(=O)C1CCN(Cc2ccc(OCc3ccccc3)cc2)CC1`, the AC50 is > 42 µM (inactive).

For `c1ccc(-c2nc(N3CCOCC3)c3ccccc3n2)nc1`, the AC50 was > 42 µM (inactive). Take `COc1ccc(NC(=S)NC(=O)C2CCC2)cc1`: the AC50 is > 42 µM (inactive). For the molecule `CCC1(CC)NC(=O)N(CC(=O)N2N=C(c3ccc(Cl)cc3)CC2c2ccco2)C1=O` (configuration not stated), the AC50 is > 42 µM (inactive). `Cc1nc2ccc(S(=O)(=O)NC(CC(C)C)C(=O)O)cc2s1` (configuration not stated): the AC50 is > 42 µM (inactive). On to `CC(C)n1c(O)c(N=Nc2ccccn2)c2ccccc21`, for which the AC50 was > 42 µM (inactive). The result for `CCOC(=O)N1CCN(c2nnnn2-c2ccccc2)CC1` reads > 42 µM (inactive); that for `CCCNCc1cc(OCC)c(OCC(N)=O)cc1Br`, > 42 µM (inactive); that for `COC(=O)C12CCC3(SCCS3)C(C(=O)OC)(CCC13SCCS3)C2`, 7.24 µM. In the case of `CN(C)C(=O)CN1C(=O)c2cccc3cccc1c23`, the AC50 is > 42 µM (inactive). As to `CC(C)(C)c1ccc(-c2nc(C=O)c3ccccn23)cc1`, the AC50 is > 42 µM (inactive).

Consider `CCC(=O)c1c[nH]c(C(=O)NCCCn2ccnc2)c1`, for which the AC50 is > 42 µM (inactive).

In the case of `CC(=O)N1CCN(CC(O)COc2ccc(OCc3ccccc3)cc2)CC1` (configuration not stated), the AC50 is > 42 µM (inactive). The result for `CCOC(=O)C1(Cc2cccc(F)c2)CCN(C(=O)c2cnccn2)CC1` reads > 42 µM (inactive); that for `Cc1cc(C)c2c(=O)[nH]cnc2n1`, > 42 µM (inactive). `O=C(O)CC(NC(=O)OCc1ccccc1)c1ccc(Br)cc1` (configuration not stated): the AC50 is > 42 µM (inactive).

As to `O=C(CSCc1ccc(Cl)cc1)N1CCCCC1`, the AC50 is > 42 µM (inactive).

Regarding `COc1cc(/C=N/NC(=O)c2cccc([N+](=O)[O-])c2)ccc1O`, the AC50 was > 42 µM (inactive). Turning to `O=C1N=C(N2CCOCC2)S/C1=C\c1cccnc1`, the AC50 was > 42 µM (inactive).

Source of the values: PubChem BioAssay AID463204 (Broad Institute, 2010).
